Where only a bound is given, the exact number is not on record here.

One experiment concerns THP-1 Lucia ISG cells. As to the kind of experiment: ISG-LUC activation assay (ISRE-luciferase assay). Format: cell-based. The note with it: Homo sapiens, THP1-Lucia ISG, 24 h, read-out: ISG-LUC activation assay score. The source says: We have established a robust platform for identifying non-nucleotide small molecule STING agonists. his has been established using a primary assay involving a human THP-1 cell line carrying an IRF-inducible reporter with 5 copies of the IFN signaling response element. Counter screens, involving alternative reporter constructs, rodent cell-based assays, as well as cGAS and STING knock-out cell lines, are used to eliminate luciferase artifacts and ensure human-rodent cross species reactivity, as well as pathway selectivity. Biochemical assays, involving cGAS enzymatic activity and STING protein binding assays, are used to identify the specific target of identified hits.
Tissue culture. Wild-type (cat. no. thpl-isg) and STING KO (cat. no. thpd-kostg) THP-1-Lucia ISG cells were purchased from Invivogen and maintained in growth media consisting of RPMI 1640, 2mM L-glutamine, […], 10% heat-inactivated fetal bovine serum (FBS), 1,000 units/ml penicillin, 1,000 μg/ml streptomycin, 0.25 μg/ml Amphotericin B, and 100 μg/ml zeocin unless otherwise stated.
ISRE-luciferase assay. THP-1 Lucia ISG cells were resuspended in low-serum growth media (2% FBS) at a density of 5×10^5 cells/ml and treated with test article or vehicle (DMSO). 50 μL of cells were seeded into each well of a 384-well white greiner plates and incubated for 24 hours. To evaluate expression of the luciferase reporter, 30 μl of Quanti-luc (Invivogen) detection reagent was added to each well and luminescence was read using an Envision plate reader (Perkin Elmer) set with an integration time of 0.1 seconds.
As to `C#Cc1cc(NC(=O)c2cc(N)c3nnnn3n2)c(C(=O)O)cc1F` [Compound 1, lithium 2-(8-aminotetrazolo[1,5-b]pyridazine-6-carboxamido)-4-ethynyl-5-fluorobenzoate], the EC50 was less than 3000 nM.

The experiment is the same for the next values; noted with them: Homo sapiens, THP1-Lucia ISG; THP-1 Lucia ISG reporter cells, 24 hours; score based upon potency and efficacy relative to reference compound; read-out: ISG-LUC activation assay score.
For `O=C(Nc1cc(F)c(F)cc1C(=O)O)c1cc2[nH]cnc2cn1` [Compound 78], the EC50 is greater than 1000 nM. Turning to `C#Cc1cc(NC(=O)c2ccc3c(C#N)nnn3n2)c(C(=O)OC)cc1F` [Compound 52], the EC50 is greater than 1000 nM. The same measure, in the same setting: for `COc1cc(NC(=O)c2nc3ccc(C(N)=O)nc3[nH]2)c(C(=O)O)cc1F` [Compound 87] the value was greater than 20000 nM; for `COC(=O)c1cc(C#N)c(Cl)cc1NC(=O)c1cc2[nH]ncc2cn1` [Compound 90], greater than 1000 nM. In the case of `C#Cc1cc(NC(=O)c2ccn3c(S(C)(=O)=O)nnc3n2)c(C(=O)O)cc1F` [Compound 62], the EC50 is greater than 20000 nM.

Take `C#Cc1cc2nc(-c3cc(N)c4nnnn4n3)oc(=O)c2cc1F` [Compound 2, 2(8-aminotetrazolo[1,5-b]pyridazin-6-yl)-7-ethynyl-6-fluoro-4H-benzo[d][1,3]oxazin-4-one]: the EC50 is less than 900 nM. The same measure, in the same setting: the result for `C#Cc1cc(NC(=O)c2ccc3nnnn3n2)c(C(=O)O)cc1F` [Compound 9] reads less than 3000 nM. Still for that read-out and setting: the result for `COc1cc(NC(=O)c2ccc3cnnn3n2)c(C(=O)O)cc1F` [Compound 6] reads less than 3000 nM; that for `COC(=O)c1cc(Cl)c(Cl)cc1NC(=O)c1nn2nnnc2cc1N` [Compound 65], less than 900 nM; that for `COC(=O)c1cc(F)c(OC)cc1NC(=O)c1cc(NC(=O)OC(C)(C)C)c2nnnn2n1` [Compound 79], greater than 1000 nM.

As for `C#Cc1cc(NC(=O)c2cc(N)nn3nnnc23)c(C(=O)O)cc1F` [Compound 50], the EC50 was greater than 1000 nM. With `COC(=O)c1cc(F)c(F)cc1NC(=O)c1cc2ncccn2n1` [Compound 85], the EC50 is greater than 20000 nM. Regarding `COc1cc2nc(-c3ccc4nnnn4n3)oc(=O)c2cc1F` [Compound 48], the EC50 was less than 900 nM. The same measure, in the same setting: the result for `C#Cc1cc(NC(=O)c2ccn3nc(N)nc3n2)c(C(=O)O)cc1F` [Compound 37] reads greater than 20000 nM; that for `COC(=O)c1cc(F)c(C)cc1NC(=O)c1cc(N)c2nnnn2n1` [Compound 40], less than 900 nM.

Turning to `CCOC(=O)c1nc(Cl)sc1NC(=O)c1cc(N)c2nnnn2n1` [Compound 45], the EC50 was greater than 1000 nM.

Turning to `COC(=O)c1cc(F)c(OC)cc1NC(=O)c1ccn2c(N)nnc2n1` [Compound 57], the EC50 was greater than 20000 nM.

On to `Nc1cc(C(=O)Nc2cc(C3CC3)ccc2C(=O)O)nn2nnnc12` [Compound 31], for which the EC50 is greater than 20000 nM.

For the compound `COC(=O)c1cc(F)c(OC)cc1NC(=O)c1cc(N)c2nnnn2n1` [Compound 67], the EC50 is less than 900 nM. Same read-out and setting: for `C#Cc1cc(NC(=O)c2cc(NC(=O)OC(C)(C)C)c3nnnn3n2)c(C(=O)OC)cc1F` [Compound 70] the value was greater than 1000 nM.

Regarding `C=C(F)c1cc(NC(=O)c2cc(N)c3nnnn3n2)c(C(=O)O)cc1F` [Compound 26], the EC50 is greater than 1000 nM. Still for that read-out and setting: the result for `C#Cc1cc(NC(=O)c2ccc3c(-c4nnc[nH]4)nnn3n2)c(C(=O)O)cc1F` [Compound 61] reads greater than 1000 nM; that for `COc1cc(NC(=O)c2cc(N)c3nnnn3n2)c(C(=O)O)cc1Cl` [Compound 84], greater than 1000 nM. The same measure, in the same setting: for `C#Cc1ccc(C(=O)O)c(NC(=O)c2cc(N)c3nnnn3n2)c1` [Compound 24] the value was greater than 1000 nM; for `C#Cc1cc(NC(=O)c2ccc3c(C#N)nnn3n2)c(C(=O)O)cc1F` [Compound 13], greater than 1000 nM; for `COC(=O)c1cc(F)c(F)cc1NC(=O)N1CCn2cncc2C1` [Compound 76], greater than 1000 nM. The same measure, in the same setting: for `O=C(Nc1cc(F)c(F)cc1C(=O)O)c1ccc2nnnn2n1` [Compound 22] the value was greater than 1000 nM; for `COC(=O)c1cc(F)c(OC)cc1NC(=O)c1ccc2cnnn2n1` [Compound 10], less than 900 nM.

For the compound `C=Cc1ccc(C(=O)OC)c(NC(=O)c2cc(N)c3nnnn3n2)c1` [Compound 64], the EC50 is less than 900 nM. For `COc1ccc(C(=O)O)c(NC(=O)c2cc(N)c3nnnn3n2)c1` [Compound 81], the EC50 was greater than 1000 nM.

Regarding `C#Cc1cc(NC(=O)c2ccc3nnnn3n2)c(C(=O)OC)cc1F` [Compound 42], the EC50 was less than 900 nM. In the case of `COC(=O)c1cc(Cl)c(Cl)cc1NC(=O)c1ccn2c(C#N)cnc2n1` [Compound 3, methyl 4,5-dichloro-2-(3-cyanoimidazo[1,2-a]pyrimidine-7-carboxamido)benzoate], the EC50 was less than 900 nM. With `C#Cc1cc(NC(=O)c2cc(N)c3nnnn3n2)c(C(=O)O)cc1Cl` [Compound 14], the EC50 was less than 3000 nM. Same read-out and setting: for `O=C1CCn2nc(C(=O)Nc3cc(Cl)c(Cl)cc3C(=O)O)nc2N1` [Compound 23] the value was greater than 20000 nM; for `COC(=O)c1nc(Cl)c(Cl)cc1NC(=O)c1cnc2nc[nH]c2c1` [Compound 25], greater than 20000 nM; for `COc1cc(NC(=O)c2ccc3c(ncn3C)n2)c(C(=O)O)cc1F` [Compound 55], greater than 20000 nM. Still for that read-out and setting: for `C#Cc1cc(NC(=O)c2ccn3c([S+](C)[O-])nnc3n2)c(C(=O)O)cc1F` (stereo not drawn) [Compound 63] the value was greater than 20000 nM.

In the case of `C#Cc1cc(NC(=O)c2ccn3c(-c4cn[nH]c4)cnc3n2)c(C(=O)OC)cc1F` [Compound 20], the EC50 is greater than 1000 nM. Still for that read-out and setting: for `Nc1cc(C(=O)Nc2cc(Cl)c(F)cc2C(=O)O)nn2nnnc12` [Compound 83] the value was less than 900 nM; for `COc1cc(NC(=O)c2cc(N)c3nnnn3n2)c(C(=O)OC(C)OC(C)=O)cc1F` (stereo not drawn) [Compound 54], less than 900 nM. `COC(=O)c1cc(F)c(F)cc1NC(=O)c1cccn2cnnc12` [Compound 15]: the EC50 is greater than 1000 nM. On to `Nc1cc2nnnn2nc1C(=O)Nc1cc(Cl)c(Cl)cc1C(=O)O` [Compound 74], for which the EC50 is less than 3000 nM. Same read-out and setting: the result for `C#Cc1cc(NC(=O)c2cc(N)c3nnnn3n2)c(C(=O)OC)cc1Cl` [Compound 34] reads less than 900 nM. For `COC(=O)c1cc(C#N)c(Cl)cc1NC(=O)c1cc2[nH]cnc2cn1` [Compound 68], the EC50 is greater than 1000 nM. In the case of `Nc1cc(C(=O)Nc2cc3ccccc3cc2C(=O)O)nn2nnnc12` [Compound 29], the EC50 was greater than 20000 nM. Consider `COC(=O)c1sc(C)cc1NC(=O)c1cc(N)c2nnnn2n1` [Compound 38], for which the EC50 was greater than 1000 nM. On the same count and under the same terms, for `C#Cc1cc(NC(=O)c2ccn3nc(-c4cn[nH]c4)nc3n2)c(C(=O)O)cc1F` [Compound 51] the value was greater than 20000 nM; for `COc1cc(NC(=O)c2cc(N)c3nnnn3n2)c(C(=O)OC(C)C)cc1F` [Compound 47], greater than 1000 nM. Take `C#Cc1cc(NC(=O)c2cc(N)n3c(C#N)cnc3n2)c(C(=O)O)cc1F` [Compound 46]: the EC50 was greater than 20000 nM. Turning to `C#Cc1cc(NC(=O)c2cc(N)c3ncnn3n2)c(C(=O)O)cc1F` [Compound 8], the EC50 is greater than 1000 nM. Same read-out and setting: for `C#Cc1cc2nc(-c3ccc4nnnn4n3)oc(=O)c2cc1F` [Compound 44] the value was less than 900 nM; for `COc1cc2nc(-c3cc(N)c4nnnn4n3)oc(=O)c2cc1F` [Compound 49], less than 900 nM; for `Nc1cc(C(=O)Nc2cc(Cl)c(Cl)cc2C(=O)O)nn2nnnc12` [Compound 82], greater than 1000 nM. On the same count and under the same terms, the result for `C=C(F)c1ccc(C(=O)OC)c(NC(=O)c2cc(N)n3ncnc3n2)c1` [Compound 30] reads less than 900 nM; that for `C#Cc1cc(NC(=O)c2cc(N)nn3nnnc23)c(C(=O)OC)cc1F` [Compound 19], less than 900 nM. Turning to `COC(=O)c1cc(F)c(F)cc1NC(=O)c1nc2cnccn2n1` [Compound 80], the EC50 is greater than 1000 nM. Turning to `C#Cc1ccc(NC(=O)c2cc(N)c3nnnn3n2)c(C(=O)O)c1` [Compound 28], the EC50 is greater than 20000 nM. The same measure, in the same setting: for `COC(=O)c1cc(F)c(F)cc1NC(=O)c1cc2[nH]cnc2cn1` [Compound 69] the value was less than 900 nM; for `COC(=O)c1cc(Cl)c(Cl)cc1NC(=O)c1cccn2cnnc12` [Compound 89], greater than 1000 nM; for `COc1cc(NC(=O)c2ccc3nnnn3n2)c(C(=O)O)cc1F` [Compound 7], less than 3000 nM.

Consider `C=C(F)c1ccc(C(=O)O)c(NC(=O)c2cc(N)c3cnnn3n2)c1` [Compound 33], for which the EC50 is greater than 1000 nM. In the case of `COc1cc(NC(=O)c2ccn3c(N)nnc3n2)c(C(=O)O)cc1F` [Compound 58], the EC50 is greater than 20000 nM.

As to `COC(=O)c1cc(F)c(OC)cc1NC(=O)c1ccc2c(ncn2C)n1` [Compound 56], the EC50 was greater than 1000 nM. Same read-out and setting: the result for `COC(=O)c1cc(F)c(F)cc1NC(=O)c1ccc2nccn2n1` [Compound 21] reads greater than 20000 nM; that for `O=C(O)c1cc(Cl)c(Cl)cc1NC(=O)c1cccn2cnnc12` [Compound 88], greater than 20000 nM; that for `COc1cc(NC(=O)c2cc(NC(=O)OC(C)(C)C)c3nnnn3n2)c(C(=O)O)cc1F` [Compound 86], greater than 1000 nM. For the compound `C=Cc1ccc(C(=O)O)c(NC(=O)c2cc(N)c3nnnn3n2)c1` [Compound 16], the EC50 was greater than 1000 nM. Consider `COC(=O)c1cc(C#N)c(Cl)cc1NC(=O)c1cnc2nc[nH]c2c1` [Compound 72], for which the EC50 is greater than 20000 nM.

(Values after US20220332720A1, “BICYCLIC AGONISTS OF STIMULATOR OF INTERFERON GENES STING” (The Scripps Research Institute, priority 2019, published 2022).)
